Results on one compound are retold here after US20260274836A1, “NOVEL HEPATOSELECTIVE POLYADENYLATING POLYMERASES INHIBITORS AND THEIR METHOD OF USE” (Baruch S. Blumberg Institute, priority 2022, published 2026).

For orientation: EC50 means the midpoint of the concentration-response curve. Usually CC50 stands for the concentration at which the toxic effect on the cells reaches its halfway point.

Series [1] concerns 18f-NLuc reporter virus (HM175/18f HAV). The experiment in a line: Antiviral activity against human hepatitis A virus, 18f-NLuc reporter virus in Huh-7 cells. It is filed as cell-based, Human Hepatitis A Virus (Hepatovirus A). Conditions: Hepatovirus A, Huh-7, 48 h, Huh-7 cells, 18f-NLuc virus, 48 hrs. How it is done:
Assay for Antiviral Activity Against Human Hepatitis A Virus (Hepatovirus A).
(§1) Assays for the anti-HAV activity of the hepatoselective DHQ compounds were carried out in Huh-7 human hepatoma cells using the 18f-NLuc reporter virus, which expresses nanoluciferase (NLuc) from sequence inserted into the polyprotein coding region of the HM175/18f HAV genome between the VP1pX and 2B coding sequences (Yamane et al., 2019). The method was modified minimally from that described by Misumi et al. for iminosugar compounds (Misumi et al., 2021). Cells (approximately […]) were plated in wells of a 96-well plate with Dulbecco's modified Eagle medium (DMEM) and 10% fetal bovine serum. The cells were inoculated 24 hrs later with 18f-NLuc virus (approximately 10^6-10^7 genome equivalents) in medium containing increasing concentrations of the compounds of interest. The cells were re-incubated for 48 hrs at 37° C. in a 5% CO2 environment, then lysed in 1× passive lysis buffer (Promega) for 15 min at room temperature. Cell lysates were transferred to an opaque white 96-well plate (Corning, 3912) and NLuc assay carried out using the NLuc GLOW Assay kit (Nanolight Technology). Luminescence was measured using a Biotek Synergy II multi-mode plate reader (BioTek Instruments). The percent inhibition of replication was calculated by determining the reduction in NLuc activity from that expressed by infected cells incubated in parallel in the absence of compound, and 50% inhibitory endpoints estimated by fitting the data to a four parameter variable slope logistic curve using Prism 9 for Mac OS software (GraphPad). Cell toxicity of the compounds was assessed using the WST-1 Cell Proliferation Reagent (Sigma-Aldrich) at the end of the treatment period in parallel cultures of uninfected cells, with WST-1 reagent added to cultures for 1 hr prior to harvest and O.D. reading.
as §1, with “Additional exemplary compounds of the present invention are evaluated for anti-HAV activity in accordance with certain assays described hereinabove. As discussed above, assays” for “Assays”, “10^6-107” for “10^6-10^7”

Series [2] has as its target T1, OATP1B3 (Homo sapiens, UniProt Q9NPD5).
T1 construct: expressed in transfected cells; host or cells: HEK293
T1 sequence (Q9NPD5 1-702): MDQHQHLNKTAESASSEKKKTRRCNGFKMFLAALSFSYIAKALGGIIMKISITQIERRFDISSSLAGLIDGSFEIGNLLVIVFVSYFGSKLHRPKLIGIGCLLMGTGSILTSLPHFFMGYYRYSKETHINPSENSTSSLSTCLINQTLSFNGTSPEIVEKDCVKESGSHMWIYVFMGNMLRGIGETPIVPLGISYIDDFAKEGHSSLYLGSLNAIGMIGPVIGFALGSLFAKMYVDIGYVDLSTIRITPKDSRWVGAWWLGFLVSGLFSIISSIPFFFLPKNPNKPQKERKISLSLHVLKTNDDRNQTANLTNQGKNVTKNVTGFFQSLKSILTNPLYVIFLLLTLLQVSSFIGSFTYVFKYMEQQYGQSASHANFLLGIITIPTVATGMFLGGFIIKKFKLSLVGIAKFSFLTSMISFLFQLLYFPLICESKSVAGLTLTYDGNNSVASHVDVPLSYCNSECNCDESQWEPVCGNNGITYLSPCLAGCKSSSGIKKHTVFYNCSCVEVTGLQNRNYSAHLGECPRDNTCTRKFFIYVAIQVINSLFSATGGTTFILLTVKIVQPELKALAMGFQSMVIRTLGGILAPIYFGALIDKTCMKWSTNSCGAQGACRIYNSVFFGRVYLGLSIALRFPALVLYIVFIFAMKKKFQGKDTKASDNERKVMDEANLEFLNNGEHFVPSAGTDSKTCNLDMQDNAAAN
The experiment in a line: OATP1B3 transporter substrate uptake in OATP1B3-HEK293 cells. It is filed as in vitro ADME. How it is done:
Protocol for identification of compounds that are substrates of transporters OATPIBI and OATPIB3. Transfected HEK293 and vector control HEK293 cells were cultured in 24-well poly-D-lysine or collagen-coated tissue culture plates ([…]) for 2 and 10 minutes respectively in transport buffer (HBSSg, pH 7.4, pre-warmed to 37° C.). At a defined time point, the uptake experiments were stopped by removing dosing solution followed by two washes of ice-cold HBSSg buffer. The cells were lysed for 2 minutes with 75% ACN containing an appropriate internal standard (when available). Lysis buffer were chilled to −20° C., and the plate was kept on ice during lysis. The cell lysate was transferred into a 96-well plate for sample analysis with LC-MS/MS analysis to determine concentration of test compound in cell lysate. The uptake of test compounds was normalized by total cell protein using the BCA Protein Assay Kit following the manufacturer's protocol. The inhibitor Rifamycin SV was used to block OATP1B1 and OATP1B3 transporter activity in order to determine uptake ratios.

The nature of series [3]: in vitro. The following applies: human. It is filed as cell-based. How it is done: Assays for the anti-HAV activity of the hepatoselective DHQ compounds were carried out in Huh-7 human hepatoma cells using the 18f-NLuc reporter virus, which expresses nanoluciferase (NLuc) from sequence inserted into the polyprotein coding region of the HM175/18f HAV genome between the VP1pX and 2B coding sequences (Yamane et al., 2019). The method was modified minimally from that described by Misumi et al. for iminosugar compounds (Misumi et al., 2021). Cells (approximately […]) were plated in wells of a 96-well plate with Dulbecco's modified Eagle medium (DMEM) and 10% fetal bovine serum. The cells were inoculated 24 hrs later with 18f-NLuc virus (approximately 10^6-10^7 genome equivalents) in medium containing increasing concentrations of the compounds of interest. […] Luminescence was measured using a Biotek Synergy II multi-mode plate reader (BioTek Instruments). […] Cell toxicity of the compounds was assessed using the WST-1 Cell Proliferation Reagent (Sigma-Aldrich) at the end of the treatment period in parallel cultures of uninfected cells, with WST-1 reagent added to cultures for 1 hr prior to harvest and O.D. reading.
Additional exemplary compounds of the present invention are evaluated for anti-HAV activity in accordance with certain assays described hereinabove. […] Luminescence was measured using a Biotek Synergy II multi-mode plate reader (BioTek Instruments). […]

Turning to `COc1cc2c(cc1OCCCCCCC(=O)O)C[C@@H](C(C)C)n1cc(C(=O)O)c(=O)cc1-2` [Example 6, (S)-9-((6-carboxyhexyl)oxy)-6-isopropyl-10-methoxy-2-oxo-6,7-dihydro-2H-pyrido[2,1-a]isoquinoline-3-carboxylic acid], in series [1], the EC50 is 278 nM. Further, the “Uptake Ratio (−/+Inhibitor)” value in series [2] (OATP1B3-HEK293 cells, test concentration 1 μM, inhibitor Rifamycin SV) is 11.57. The “Uptake Ratio (Transporter(−Inhibitor)/Mock(−Inhibitor))” value in series [2] (OATP1B3-HEK293 vs mock HEK293, test concentration 1 μM) is reported as 24.80. Also, the CC50 at 48 h in series [3] was > 10000 nM.
